Test results: US20150141478A1, “SERIES OF DRUGS USING PHOTOFRIN TO CATALYZE DECOMPOSITION OF HYDROGEN PEROXIDE” (Wuxi Zhaozhen Radiation Technology Co., Ltd., priority 2012, published 2015)

Columns and labels:
[1] = test system: plaques in thoracic aorta; conditions: 5-ALA 80 mg/kg i.p., then i.v. substrate (carbamide peroxide), 5Gy once, 7th day after therapy
Procedure: (1) Male New Zealand rabbits, bodyweight 3-4 kg, were fed with diet containing 1% cholesterol and pork fat, raised for 11 weeks, until atherosclerotic plaques occurred at vessels of eye ground at both sides and artery.
(2) The rabbits were anesthetized with ketamine and thiopental sodium.
(3) Target regions of plaques at artery to be treated were determined by total body CT plain scanning and CTA enhancing.
(4) Target regions of plaques at artery to be treated were sketched by a therapy planning system, to formulate a therapeutical plan suitable for RCDT, using GTV dose of up to 5.0Gy, irradiated once. Normal feeding was restored during the procedure.
(5) It was 2 h before the irradiation that 5-ALA (80 mg/kg in saline 5 ml) was intraperitoneally injected, carbamide peroxide (injection containing H2O2, 80 mg/kg) in 5 ml of saline was slowly injected via ear vein immediately before the irradiation, and the therapeutical plan was carried out immediately after the injection of carbamide peroxide.
(6) It was 5-7 days after irradiation the CTA was reexamined, and the situations of elimination of vascular plaques were recorded.
The plaques are used as target regions, positioned, and radiotherapy plan is formulated. It is 1.5 h after intraperitoneal injection of 5-ALA (80 mg/kg of body weight) that a substrate is intravenously dripped, the vascular plaques are irradiated with 5Gy once. […]

[2] = Suppression of the decomposition of H2O2 catalysed by haematoporphyrin and .OH, using .OH scavengers; conditions: 1.5% H2O2, 20% DMSO, 15% ethanol, 5% mannitol
Procedure: (4) 15 uM Haematoporphyrin derivative (HPD) was added, or 15 uM acidified porphyrin (Protoporphyrin IX, PpIX) was added.
(5) The vacuum bottles were irradiated with 10 MeV X-ray for about 1 min, dose of 5Gy, to start the decomposition reaction of H2O2. The reaction was terminated by stopping irradiation.

[3] = Decomposition of H2O2 catalysed by photofrin alone under weak alkali, 1O2 measured by DMA fluorescence; conditions: 15 uM, H2O2 lower than or equal to 0.15%, 25° C., 8 h, no activation
Procedure: (1) 10 ml vacuum bottles were used, and the vacuum bottles were totally sealed with Kodak photographic film light protecting paper.
(2) H2O2 solutions (in DMF: H2O=1:5) with different concentrations were added to the sealed vacuum bottles.
(3) 5 uM 9,10-dimethylanthracene (DMA) was added. DMA was a kind of ^1O2 specific indicator (probe), DMA had intensive fluorescence property, after binding to ^1O2, endorperoxide without fluorescence property was formed, so that the amount of the generated ^1O2 is in inverse proportion with the content of DMA.
(4) 15 uM Haematoporphyrin derivative was added, and reacted at 25° C. for 8 h.

Compound	inhibition of 1O2 yield [2] [%]	also measured
NCC(=O)CCC(=O)O [5-ALA]	–	plaques in thoracic aorta by CTA visualization and MR [1]: completely disappeared
CCO [ethanol]	43.0	–
Haematoporphyrin derivative	–	catalysis of the decomposition reaction of H2O2 to generate 1O2 [3]: cannot be catalyzed
OC[C@@H](O)[C@@H](O)[C@H](O)[C@H](O)CO [mannitol]	17.7	–
C[S+](C)[O-] [DMSO]	75.1	–
